Columns and labels:
[1] = biological target: T1, estrogen receptor (Rattus norvegicus, UniProt P06211); experiment: Estrogen receptor (ER) assay: inhibition of [3H]E2 binding, uterine cytosol
T1 construct: from tissue; host or cells: uterine cytosol of gonadectomized female Sprague-Dawley rats
T1 sequence (P06211 1-600): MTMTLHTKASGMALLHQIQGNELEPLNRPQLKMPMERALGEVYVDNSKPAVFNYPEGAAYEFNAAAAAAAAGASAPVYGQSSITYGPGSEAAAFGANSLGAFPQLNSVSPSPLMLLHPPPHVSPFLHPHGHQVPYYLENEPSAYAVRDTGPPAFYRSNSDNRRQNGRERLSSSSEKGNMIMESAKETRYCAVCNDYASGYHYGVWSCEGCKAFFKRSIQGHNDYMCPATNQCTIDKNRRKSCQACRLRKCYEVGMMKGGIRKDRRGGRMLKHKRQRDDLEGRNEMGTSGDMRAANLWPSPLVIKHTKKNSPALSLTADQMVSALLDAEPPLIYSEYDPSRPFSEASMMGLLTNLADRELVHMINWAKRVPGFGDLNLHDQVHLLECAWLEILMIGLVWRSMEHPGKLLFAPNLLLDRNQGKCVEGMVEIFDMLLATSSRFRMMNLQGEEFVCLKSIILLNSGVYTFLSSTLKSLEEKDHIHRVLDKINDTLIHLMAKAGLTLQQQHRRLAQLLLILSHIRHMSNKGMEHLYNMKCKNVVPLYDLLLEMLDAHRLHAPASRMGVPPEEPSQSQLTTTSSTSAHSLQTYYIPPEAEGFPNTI
Protocol: Female Sprague-Dawley rats (Crl: CD(SD)Br) weighing 200-300 g were obtained from Charles-River Inc. (St-Constant, Québec, Canada). The rats were gonadectomized under general anesthesia (Isoflurane) and killed by cervical dislocation 24 hours later. The uteri were rapidly removed, dissected free from adhering tissue and frozen on dry-ice. Uteri were kept at −80° C. until assay. All subsequent steps were performed at 0-4° C. Uteri were homogenized in 10 vol (wt/vol) of buffer A (25 mM Tris-HCI, 1.5 mM EDTA disodium salt, 10 mM α-monothioglycerol, 10% glycerol, and 10 mM sodium molybdate, pH 7.4), using a Polytron PT-10 homogenizer (Brinkman Instruments, Canada) at a setting of 5 for three periods of 10 sec, with intervals of 10 sec for cooling. The homogenate was then centrifuged at 105,000×g for 60 min in a Beckman L5-65 ultracentrifuge (Fullerton, Calif.). The protein concentration of the cytosol fraction was measured according to the method of Bradford (Anal. Biochem. 72: 248-254, 1976), using bovine serum albumin as standard.
Estrogen binding was measured using the dextran-coated charcoal adsorption technique as described previously (Asselin et al., Endocrinology, 101: 666-671, 1977; Asselin and Labrie, J. Steroid Biochem., 9: 1079-1082, 1978). Briefly, [^3H]E2 solubilized in ethanol were diluted into buffer A. Aliquots of uterine cytosol preparation (0.1 ml) were incubated with 5 nM [^3H]E2 (˜200,000 cpm, 0.1 ml) in the presence or absence of the indicated concentrations of unlabeled compounds (0.1 ml, prepared in buffer A containing 10% ethanol) for 3 h at room temperature. Unbound steroids were then separated by incubation for 15 min at 0-4° C. with 0.3 ml 0.5% Norit-A and 0.05% Dextran T-70 in buffer B (1.5 mM EDTA disodium salt, 10 mM monothioglycerol, and 10 mM Tris-HCI, pH 7.4) and centrifuged at 3,000×g for 15 min. Aliquots of the supernatant (0.3 ml) were removed for radioactivity measurement.

[2] = system: Shionogi mouse mammary carcinoma cells; experiment: Androgenic activity: stimulation of proliferation of Shionogi cells; assay type: cell-based
Outline: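 Values are the percent stimulation of cell number, measured by Coulter counter, after 10–12 days of exposure to 10^−7 M or 10^−6 M compound. Androgen-sensitive Shionogi cells were seeded at 20 000 cells/well in triplicate in dextran-charcoal-treated FCS medium, refreshed every 3–4 days.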

SMILES: COC(=O)CCCC(=O)O[C@]1(C(C)=O)CC[C@H]2[C@@H]3C=C(C)C4=CC(=O)CC[C@]4(C)[C@H]3CC[C@@]21C [EM-1007, 6-Methyl-4,6-pregnadien-17α-ol-3,20-dione 4′-Carbomethoxybutyrate]
- % Inhibition Estrogen Receptor ([1]; E^−6): 0%
- % Inhibition Estrogen Receptor ([1]; E^−8): 0%
- Androgenic Activity Shionogi, Basal ([2]; E^−6): −31
- Androgenic Activity Shionogi, Basal ([2]; E^−7): 0

SMILES: CC1CCC2(CCC3C4CCc5ccccc5C4CCC32C)OC1=O (stereo not drawn) [EM-1025]
- % Inhibition Estrogen Receptor E^−6 ([1]; Table 4′, E^−6): 4%
- % Inhibition Estrogen Receptor E^−8 ([1]; Table 4′, E^−8): 1%
- Androgenic Activity Shionogi, Basal E^−6 ([2]; Table 4′, E^−6): 0%
- Androgenic Activity Shionogi, Basal E^−7 ([2]; Table 4′, E^−7): 5%

SMILES: CCCC(=O)O[C@]1(C)C(=O)CCC2C3C=C(C)C4=CC(=O)CC[C@]4(C)C3CC[C@@]21C (stereo partly drawn) [EM-1078]
- % Inhibition Estrogen Receptor E^−6 ([1]; E^−6): 0%
- % Inhibition Estrogen Receptor E^−8 ([1]; E^−8): 5%
- Androgenic Activity Shionogi, Basal E^−6 ([2]; E^−6): 45
- Androgenic Activity Shionogi, Basal E^−7 ([2]; E^−7): 5

SMILES: CCC[C@@H]1CC2C3C=CC4=CC(=O)CC[C@]4(C)C3CC[C@]2(C)C1=O (stereo partly drawn) [EM-1097]
- % Inhibition Estrogen Receptor E^−6 ([1]; E^−6): 1%
- % Inhibition Estrogen Receptor E^−8 ([1]; E^−8): 0%
- Androgenic Activity Shionogi, Basal E^−6 ([2]; E^−6): −12
- Androgenic Activity Shionogi, Basal E^−7 ([2]; E^−7): 18

SMILES: CN1C(=O)C=C[C@]2(C)C3CC[C@@]4(C)C(CC[C@@]45CCCC(=O)O5)C3CCC12 (stereo partly drawn) [EM-1122-CS]
- % Inhibition Estrogen Receptor E^−6 ([1]; Table 5 column 16, E^−6): 0%
- % Inhibition Estrogen Receptor E^−8 ([1]; Table 5 column 16, E^−8): 2%
- Androgenic Activity Shlonogl, Basal E^−6 ([2]; Table 5 column 9, E^−6): −11%
- Androgenic Activity Shlonogl, Basal E^−7 ([2]; Table 5 column 9, E^−7): 0%

SMILES: C[C@]12CCC3c4cc([N+](=O)[O-])c(O)cc4CCC3C1CC[C@@]21CCCC(=O)O1 (stereo partly drawn) [EM-1124, 2-Nitro-1,3,5(10)-estraetriene-3-ol-17(R)-spiro-2′-(6′-oxo)tetrahydropyran]
- % Inhibition Estrogen Receptor E^−6 ([1]; Table 4′, E^−6): 0%
- % Inhibition Estrogen Receptor E^−8 ([1]; Table 4′, E^−8): 0%
- Androgenic Activity Shionogi, Basal E^−6 ([2]; Table 4′, E^−6): −11%
- Androgenic Activity Shionogi, Basal E^−7 ([2]; Table 4′, E^−7): 0%

SMILES: CC1(C)CCC2(CCC3C4CCc5cc(O)c([N+](=O)[O-])cc5C4CCC32C)OC1=O (stereo not drawn) [EM-1125-CS]
- % Inhibition Estrogen Receptor E^−6 ([1]; Table 4′, E^−6): 2%
- % Inhibition Estrogen Receptor E^−8 ([1]; Table 4′, E^−8): 2%
- Androgenic Activity Shionogi, Basal E^−6 ([2]; Table 4′, E^−6): −10%
- Androgenic Activity Shionogi, Basal E^−7 ([2]; Table 4′, E^−7): 3%

SMILES: CC1CCC2(CCC3C4CCc5cc(O)c([N+](=O)[O-])cc5C4CCC32C)OC1=O [EM-1126, 2-Nitro-1,3,5(10)-estratrien-3-ol-17(R)-spiro-2′-(5′-methyl-6′-oxo)tetrahydropyran]
- % Inhibition Estrogen Receptor E^−6 ([1]; Table 4′, E^−6): 0%
- % Inhibition Estrogen Receptor E^−8 ([1]; Table 4′, E^−8): 1%
- Androgenic Activity Shionogi, Basal E^−6 ([2]; Table 4′, E^−6): −8%
- Androgenic Activity Shionogi, Basal E^−7 ([2]; Table 4′, E^−7): 0%

SMILES: CC1CCC2(CCC3C4CCc5cc(O)c([N+](=O)[O-])cc5C4CCC32C)OC1=O [EM-1131, 2-Nitro-1,3,5(10)-estratrien-3-ol-17(R)-spiro-2′-(5′-methyl-6′-oxo)tetrahydropyran]
- % Inhibition Estrogen Receptor E^−6 ([1]; Table 4′, E^−6): 3%
- % Inhibition Estrogen Receptor E^−8 ([1]; Table 4′, E^−8): 5%
- Androgenic Activity Shionogi, Basal E^−6 ([2]; Table 4′, E^−6): 0%
- Androgenic Activity Shionogi, Basal E^−7 ([2]; Table 4′, E^−7): 0%

SMILES: CC1(C)CC[C@@]2(CCC3C4CCc5cc(F)ccc5C4CC[C@@]32C)OC1=O (stereo partly drawn) [EM-1157-CS]
- % Inhibition Estrogen Receptor E^−6 ([1]; Table 4′, E^−6): 0%
- % Inhibition Estrogen Receptor E^−8 ([1]; Table 4′, E^−8): 0%
- Androgenic Activity Shionogi, Basal E^−6 ([2]; Table 4′, E^−6): −12%
- Androgenic Activity Shionogi, Basal E^−7 ([2]; Table 4′, E^−7): 16%

SMILES: CC(=O)O[C@]1(C(=O)N(C)C)CCC2C3C=C(C)C4=CC(=O)CC[C@]4(C)C3CC[C@@]21C (stereo partly drawn) [EM-1159]
- % Inhibition Estrogen Receptor ([1]; E^−6): 1%
- % Inhibition Estrogen Receptor ([1]; E^−8): 0%
- Androgenic Activity Shionogi, Basal ([2]; E^−6): −14
- Androgenic Activity Shionogi, Basal ([2]; E^−7): 15

SMILES: CCCCN(C)C(=O)[C@@]1(OC(C)=O)CCC2C3C=C(C)C4=CC(=O)CC[C@]4(C)C3CC[C@@]21C (stereo partly drawn) [EM-1165]
- % Inhibition Estrogen Receptor ([1]; E^−6): 0%
- % Inhibition Estrogen Receptor ([1]; E^−8): 0%
- Androgenic Activity Shionogi, Basal ([2]; E^−6): −17
- Androgenic Activity Shionogi, Basal ([2]; E^−7): 5

SMILES: CC12CCC3c4ccc(F)cc4CCC3C1CCC21CCCC(=O)O1 (stereo not drawn) [EM-1170-CS]
- % Inhibition Estrogen Receptor E^−6 ([1]; Table 4′, E^−6): 0%
- % Inhibition Estrogen Receptor E^−8 ([1]; Table 4′, E^−8): 0%
- Androgenic Activity Shionogi, Basal E^−6 ([2]; Table 4′, E^−6): −27%
- Androgenic Activity Shionogi, Basal E^−7 ([2]; Table 4′, E^−7): 12%

SMILES: CCC[C@]1(F)CC2C3C=CC4=CC(=O)CC[C@]4(C)C3CC[C@]2(C)C1=O (stereo partly drawn) [EM-1183]
- % Inhibition Estrogen Receptor E^−6 ([1]; E^−6): 0%
- % Inhibition Estrogen Receptor E^−8 ([1]; E^−8): 0%
- Androgenic Activity Shionogi, Basal E^−6 ([2]; E^−6): −17
- Androgenic Activity Shionogi, Basal E^−7 ([2]; E^−7): 0

SMILES: CC(=O)[C@@]1(OC(=O)CCCCF)CCC2C3C=C(C)C4=CC(=O)CC[C@]4(C)C3CC[C@@]21C (stereo partly drawn) [EM-1195-CS]
- % Inhibition Estrogen Receptor ([1]; E^−6): 0%
- % Inhibition Estrogen Receptor ([1]; E^−8): 0%
- Androgenic Activity Shionogi, Basal ([2]; E^−6): −34
- Androgenic Activity Shionogi, Basal ([2]; E^−7): −27

SMILES: CC(C)C[C@@H]1CC2C3C=CC4=CC(=O)CC[C@]4(C)C3CC[C@]2(C)C1=O (stereo partly drawn) [EM-1273-CS]
- % Inhibition Estrogen Receptor E^−6 ([1]; E^−6): 0%
- % Inhibition Estrogen Receptor E^−8 ([1]; E^−8): 0%
- Androgenic Activity Shionogi, Basal E^−6 ([2]; E^−6): −36
- Androgenic Activity Shionogi, Basal E^−7 ([2]; E^−7): 12

SMILES: COc1ccc(CC(=O)O[C@]2(C(C)=O)CCC3C4C=C(C)C5=CC(=O)C=C[C@]5(C)C4CC[C@@]32C)cc1 (stereo partly drawn) [EM-1291]
- % Inhibition Estrogen Receptor ([1]; E^−6): 0%
- % Inhibition Estrogen Receptor ([1]; E^−8): 0%
- Androgenic Activity Shionogi, Basal ([2]; E^−6): −44
- Androgenic Activity Shionogi, Basal ([2]; E^−7): −8

SMILES: C[C@]12CCC(=O)C=C1C=C[C@@H]1[C@@H]2CC[C@]2(C)C(=O)C3(CC4CC4C3)C[C@@H]12 (stereo partly drawn) [EM-1299, 4,6-Androstadien-3,17-dione-16-spirobicyclo[3′.1′.0′]-hexane]
- % Inhibition Estrogen Receptor E^−6 ([1]; E^−6): 3%
- % Inhibition Estrogen Receptor E^−8 ([1]; E^−8): 3%
- Androgenic Activity Shionogi, Basal E^−6 ([2]; E^−6): 10
- Androgenic Activity Shionogi, Basal E^−7 ([2]; E^−7): 5

SMILES: CCS(=O)(=O)Oc1ccc2c(c1)CCC1C2CCC2(C)C1CCC21CCC(C)(C)C(=O)O1 (stereo not drawn) [EM-1364-CS]
- % Inhibition Estrogen Receptor E^−6 ([1]; Table 4′, E^−6): 5%
- % Inhibition Estrogen Receptor E^−8 ([1]; Table 4′, E^−8): 0%
- Androgenic Activity Shionogi, Basal E^−6 ([2]; Table 4′, E^−6): −16%
- Androgenic Activity Shionogi, Basal E^−7 ([2]; Table 4′, E^−7): 0%

SMILES: CC1(C)CCC2(CCC3C4CCc5cc(OS(C)(=O)=O)ccc5C4CCC32C)OC1=O (stereo not drawn) [EM-1365-CS]
- % Inhibition Estrogen Receptor E^−6 ([1]; Table 4′, E^−6): 4%
- % Inhibition Estrogen Receptor E^−8 ([1]; Table 4′, E^−8): 2%
- Androgenic Activity Shionogi, Basal E^−6 ([2]; Table 4′, E^−6): −28%
- Androgenic Activity Shionogi, Basal E^−7 ([2]; Table 4′, E^−7): 4%

SMILES: COCCOc1ccc2c(c1)CCC1C2CCC2(C)C1CCC21CCC(C)(C)C(=O)O1 [EM-1368-CS, 3-Methoxyethoxy-1,3,5(10)-estratrien-17(R)-spiro-2′-(5′,5′-dimethyl-6′-oxo)-tetrahydropyran]
- % Inhibition Estrogen Receptor E^−6 ([1]; Table 4′, E^−6): 0%
- % Inhibition Estrogen Receptor E^−8 ([1]; Table 4′, E^−8): 0%
- Androgenic Activity Shionogi, Basal E^−6 ([2]; Table 4′, E^−6): −22%
- Androgenic Activity Shionogi, Basal E^−7 ([2]; Table 4′, E^−7): 8%
